Experimental data published in PubChem BioAssay AID2060512 (Molecular Pharmacology Branch, DTP, NCI, 2025).

Test system: 186277-243-T-J2-PDC complex spheroid viability
Assay: Anticancer human tumor 186277-243-T-J2-PDC patient-derived colon adenocarcinoma cell line growth inhibition [GQUAD]
Details: for IC50: curve of first compound; for viability, T/C: stronger effect = lower value
In short: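 Multi-cell-type spheroids of tumor cells with HUVEC and mesenchymal stem cells, treated with drug combinations. Concentrations descend in half-log steps from near clinical Cmax, or from 10 microM where Cmax is unknown; viability read-out.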

[1] = second compound 0.0316 µM, first compound 0.0316 µM
[2] = second compound 0.0316 µM, first compound 0.1 µM
[3] = second compound 0.0316 µM, first compound 0.316 µM
[4] = second compound 0.0316 µM, first compound 1 µM
[5] = second compound 0.0316 µM, first compound 3.16 µM
[6] = second compound 0.0316 µM, first compound 10 µM
[7] = second compound 0.1 µM, first compound 0.0316 µM
[8] = second compound 0.1 µM, first compound 0.1 µM
[9] = second compound 0.1 µM, first compound 0.316 µM
[10] = second compound 0.1 µM, first compound 1 µM
[11] = second compound 0.1 µM, first compound 3.16 µM
[12] = second compound 0.1 µM, first compound 10 µM
[13] = second compound 0.316 µM, first compound 0.0316 µM
[14] = second compound 0.316 µM, first compound 0.1 µM
[15] = second compound 0.316 µM, first compound 0.316 µM
[16] = second compound 0.316 µM, first compound 1 µM
[17] = second compound 0.316 µM, first compound 3.16 µM
[18] = second compound 0.316 µM, first compound 10 µM
[19] = second compound 1 µM, first compound 0.0316 µM
[20] = second compound 1 µM, first compound 0.1 µM
[21] = second compound 1 µM, first compound 0.316 µM
[22] = second compound 1 µM, first compound 1 µM
[23] = second compound 1 µM, first compound 3.16 µM
[24] = second compound 1 µM, first compound 10 µM
[25] = second compound 3.16 µM, first compound 0.0316 µM
[26] = second compound 3.16 µM, first compound 0.1 µM
[27] = second compound 3.16 µM, first compound 0.316 µM
[28] = second compound 3.16 µM, first compound 1 µM
[29] = second compound 3.16 µM, first compound 3.16 µM
[30] = second compound 3.16 µM, first compound 10 µM
[31] = second compound 10 µM, first compound 0.0316 µM
[32] = second compound 10 µM, first compound 0.1 µM
[33] = second compound 10 µM, first compound 0.316 µM
[34] = second compound 10 µM, first compound 1 µM
[35] = second compound 10 µM, first compound 3.16 µM
[36] = second compound 10 µM, first compound 10 µM
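Further: spheroids exposed to drugs for 7 days.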
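Wherever viability, T/C is given: 100% = DMSO vehicle control viability.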

COc1ncnc(C2CC2)c1-c1ncc2cnn(Cc3ccc(-c4nc(C(F)(F)F)cn4C(C)C)cc3)c2n1 + Cc1[nH]c2ccc(F)cc2c1-c1nc2c3cccnc3c3ncccc3c2[nH]1
IC50 (second compound 0.0316 µM): > 10 µM | IC50 (second compound 0.1 µM): > 10 µM | IC50 (second compound 0.316 µM): > 10 µM | IC50 (second compound 1 µM): > 10 µM | IC50 (second compound 3.16 µM): > 10 µM | IC50 (second compound 10 µM): > 10 µM | viability, T/C [1]: 116% | viability, T/C [2]: 91.6% | viability, T/C [3]: 95.1% | viability, T/C [4]: 84.4% | viability, T/C [5]: 111% | viability, T/C [6]: 97.4% | viability, T/C [7]: 87.5% | viability, T/C [8]: 98.7% | viability, T/C [9]: 99.8% | viability, T/C [10]: 95.2% | viability, T/C [11]: 112% | viability, T/C [12]: 86.2% | viability, T/C [13]: 104% | viability, T/C [14]: 95.7% | viability, T/C [15]: 94.2% | viability, T/C [16]: 111% | viability, T/C [17]: 108% | viability, T/C [18]: 96% | viability, T/C [19]: 92.5% | viability, T/C [20]: 105% | viability, T/C [21]: 107% | viability, T/C [22]: 93.9% | viability, T/C [23]: 116% | viability, T/C [24]: 104% | viability, T/C [25]: 103% | viability, T/C [26]: 115% | viability, T/C [27]: 97.3% | viability, T/C [28]: 102% | viability, T/C [29]: 99.9% | viability, T/C [30]: 89.9% | viability, T/C [31]: 105% | viability, T/C [32]: 101% | viability, T/C [33]: 99.1% | viability, T/C [34]: 94.4% | viability, T/C [35]: 113% | viability, T/C [36]: 97%

CC1COCCN1c1cc(-c2ccnn2C)c2ccnc(-c3ccn[nH]3)c2n1 (centres undefined) + Cc1cnc(CNC(=O)c2c(=O)c3ccc(N4CCCN(C)CC4)nc3n3c2sc2ccccc23)cn1
IC50 (second compound 0.0316 µM): < 0.0316 µM | IC50 (second compound 0.1 µM): < 0.0316 µM | IC50 (second compound 0.316 µM): < 0.0316 µM | IC50 (second compound 1 µM): < 0.0316 µM | IC50 (second compound 3.16 µM): < 0.0316 µM | IC50 (second compound 10 µM): < 0.0316 µM | viability, T/C [1]: 34.5% | viability, T/C [2]: 16.1% | viability, T/C [3]: 9.69% | viability, T/C [4]: 5.33% | viability, T/C [5]: 6.04% | viability, T/C [6]: 5.15% | viability, T/C [7]: 46.1% | viability, T/C [8]: 22.2% | viability, T/C [9]: 11.5% | viability, T/C [10]: 6.17% | viability, T/C [11]: 6.04% | viability, T/C [12]: 5.5% | viability, T/C [13]: 46.5% | viability, T/C [14]: 30% | viability, T/C [15]: 21% | viability, T/C [16]: 10.3% | viability, T/C [17]: 6.67% | viability, T/C [18]: 5.76% | viability, T/C [19]: 35.3% | viability, T/C [20]: 31.9% | viability, T/C [21]: 24.9% | viability, T/C [22]: 17.1% | viability, T/C [23]: 10.4% | viability, T/C [24]: 5.91% | viability, T/C [25]: 32.1% | viability, T/C [26]: 28.4% | viability, T/C [27]: 26.2% | viability, T/C [28]: 17.8% | viability, T/C [29]: 13.2% | viability, T/C [30]: 6.37% | viability, T/C [31]: 27.9% | viability, T/C [32]: 26% | viability, T/C [33]: 24.6% | viability, T/C [34]: 17.3% | viability, T/C [35]: 12% | viability, T/C [36]: 6.6%
